Measurements published in ChEMBL document CHEMBL1122225, “Synthesis and platelet aggregation inhibiting activity of prostaglandin D analogues” (J Med Chem, 1983).
≈ marks a conversion by molar mass, not a printed value.

Tested on: not listed separately
Assay: Potency in gerbil colon stimulation assay compared to PGE1.
Type: functional

SMILES | Relative potency
CCCCC[C@H](O)C/C=C1/C(=O)C[C@H](O)[C@@H]1C/C=C\CCCC(=O)O | 1
CCCCC[C@](C)(O)/C=C/C1C(=O)C=C[C@@H]1C/C=C\CCCC(=O)O (stereo partly drawn) | 0.3
O=C(O)CCC/C=C\C[C@@H]1C(/C=C/[C@@H](O)CCc2ccccc2)C(=O)C[C@@H]1O (stereo partly drawn) | 10
CCCCC/C=C/C=C1/C(=O)C[C@H](O)[C@@H]1C/C=C\CCCC(=O)O | <0.1
CCCCC[C@H](O)/C=C/C1C(=O)CC[C@@H]1C/C=C\CCCC(=O)O (stereo partly drawn) | 1
CCCCC(C)(C)[C@H](O)/C=C/C1C(=O)C[C@H](O)[C@@H]1C/C=C\CCCC(=O)O (stereo partly drawn) | 3
CCCCC[C@@H]1/C=C\C2C(=O)CC(O)[C@@H]2C/C=C\CCCC(=O)O1 (stereo partly drawn) | 0.1
CCCCC[C@H](O)/C=C/C1C(=O)CC(O)[C@@H]1C/C=C\CCCC(=O)O (stereo partly drawn) | 0.3
CCCCC[C@H](O)/C=C/C1C(=O)CC2OC(=O)CCC/C=C\C[C@@H]21 (stereo partly drawn) | 0.3
CCCCC[C@H](O)/C=C/C1C(=O)C[C@H](O)[C@@H]1CCCCCCC(=O)O (stereo partly drawn) | 3
CCCCC[C@H](O)/C=C/[C@H]1C(=O)C[C@H](O)[C@@H]1C/C=C/CCCC(=O)O [[3H]PGD2] | 3
CCCCC[C@H](O)/C=C/C1C(=O)C[C@H](O)[C@@H]1CCOCCCC(=O)O (stereo partly drawn) | 0.3
CC/C=C\C[C@H](O)/C=C/C1C(=O)C[C@H](O)[C@@H]1C/C=C\CCCC(=O)O (stereo partly drawn) | 1
CCCCC[C@H](O)/C=C/C1C(=O)C=C[C@@H]1C/C=C\CCCC(=O)O (stereo partly drawn) | 0.1
CCCCC[C@H](O)CCC1C(=O)C[C@H](O)[C@@H]1CCCCCCC(=O)O (stereo partly drawn) | 0.1
CCCCC[C@](C)(O)/C=C/C1C(=O)C[C@H](O)[C@@H]1C/C=C\CCCC(=O)O (stereo partly drawn) | 10
CCCCC[C@H](O)/C=C/C1C(=O)C[C@H](O)[C@@H]1C/C=C\CCCCCC(=O)O (stereo partly drawn) | <0.1

Tested on: not listed separately
Assay: Relative potency with respect to PGE1 = 100 in rat blood pressure assay
Type: functional

SMILES | Relative potency
CCCCC[C@H](O)C/C=C1/C(=O)C[C@H](O)[C@@H]1C/C=C\CCCC(=O)O | 10
CCCCC[C@](C)(O)/C=C/C1C(=O)C=C[C@@H]1C/C=C\CCCC(=O)O (stereo partly drawn) | 0.1
CCCCC/C=C/C=C1/C(=O)C[C@H](O)[C@@H]1C/C=C\CCCC(=O)O | 0.1
CCCCC[C@H](O)/C=C/C1C(=O)CC[C@@H]1C/C=C\CCCC(=O)O (stereo partly drawn) | 10
CCCCC[C@@H]1/C=C\C2C(=O)CC(O)[C@@H]2C/C=C\CCCC(=O)O1 (stereo partly drawn) | 0.1
CCCCC[C@H](O)/C=C/C1C(=O)CC(O)[C@@H]1C/C=C\CCCC(=O)O (stereo partly drawn) | 10
CCCCC[C@H](O)/C=C/C1C(=O)CC2OC(=O)CCC/C=C\C[C@@H]21 (stereo partly drawn) | 1
CCCCC[C@H](O)/C=C/C1C(=O)C[C@H](O)[C@@H]1CCCCCCC(=O)O (stereo partly drawn) | 0.1
CCCCC[C@H](O)/C=C/[C@H]1C(=O)C[C@H](O)[C@@H]1C/C=C/CCCC(=O)O [[3H]PGD2] | 10
CC/C=C\C[C@H](O)/C=C/C1C(=O)C[C@H](O)[C@@H]1C/C=C\CCCC(=O)O (stereo partly drawn) | 10
CCCCC[C@H](O)/C=C/C1C(=O)C=C[C@@H]1C/C=C\CCCC(=O)O (stereo partly drawn) | 10

Species on record: Homo sapiens
Assay: In vitro inhibition of ADP-induced platelet aggregation in human platelet rich plasma.
Type: functional

SMILES | IC50 [µg/mL]
CCCCC[C@H](O)C/C=C1/C(=O)C[C@H](O)[C@@H]1C/C=C\CCCC(=O)O | 0.1 (≈ 0.284 µM)
CCCCC[C@](C)(O)/C=C/C1C(=O)C=C[C@@H]1C/C=C\CCCC(=O)O (stereo partly drawn) | 1 (≈ 2.87 µM)
O=C(O)CCC/C=C\C[C@@H]1C(/C=C/[C@@H](O)CCc2ccccc2)C(=O)C[C@@H]1O (stereo partly drawn) | 3.2 (≈ 8.28 µM)
CCCCC/C=C/C=C1/C(=O)C[C@H](O)[C@@H]1C/C=C\CCCC(=O)O | 0.32 (≈ 0.957 µM)
CCCCC[C@@H]1/C=C\C2C(=O)CC(O)[C@@H]2C/C=C\CCCC(=O)O1 (stereo partly drawn) | 1 (≈ 2.99 µM)
CCCCC[C@H](O)/C=C/C1C(=O)CC2OC(=O)CCC/C=C\C[C@@H]21 (stereo partly drawn) | 0.032 (≈ 0.0957 µM)
CC/C=C\C[C@H](O)/C=C/C1C(=O)C[C@H](O)[C@@H]1C/C=C\CCCC(=O)O (stereo partly drawn) | 0.0032 (≈ 0.00913 µM)
CCCCC[C@H](O)/C=C/C1C(=O)C=C[C@@H]1C/C=C\CCCC(=O)O (stereo partly drawn) | 0.0032 (≈ 0.00957 µM)
CCCCC[C@](C)(O)/C=C/C1C(=O)C[C@H](O)[C@@H]1C/C=C\CCCC(=O)O (stereo partly drawn) | 0.32 (≈ 0.873 µM)

Now from value to compound:

IC50 [µg/mL] | SMILES
0.001 (≈ 0.00297 µM) | CCCCC[C@H](O)/C=C/C1C(=O)CC[C@@H]1C/C=C\CCCC(=O)O (stereo partly drawn)
0.0001 (≈ 0.000284 µM) | CCCCC[C@H](O)/C=C/C1C(=O)CC(O)[C@@H]1C/C=C\CCCC(=O)O (stereo partly drawn)
0.32 (≈ 0.903 µM) | CCCCC[C@H](O)/C=C/C1C(=O)C[C@H](O)[C@@H]1CCCCCCC(=O)O (stereo partly drawn)
0.0032 (≈ 0.00908 µM) | CCCCC[C@H](O)/C=C/[C@H]1C(=O)C[C@H](O)[C@@H]1C/C=C/CCCC(=O)O [[3H]PGD2]
0.032 (≈ 0.0898 µM) | CCCCC[C@H](O)/C=C/C1C(=O)C[C@H](O)[C@@H]1CCOCCCC(=O)O (stereo partly drawn)
3.2 (≈ 8.98 µM) | CCCCC[C@H](O)CCC1C(=O)C[C@H](O)[C@@H]1CCCCCCC(=O)O (stereo partly drawn)
1 (≈ 2.63 µM) | CCCCC[C@H](O)/C=C/C1C(=O)C[C@H](O)[C@@H]1C/C=C\CCCCCC(=O)O (stereo partly drawn)

Tested on: not listed separately
Assay: Relative potency with respect to PGF2-alpha = 100 in rat blood pressure assay

SMILES | Relative potency
O=C(O)CCC/C=C\C[C@@H]1C(/C=C/[C@@H](O)CCc2ccccc2)C(=O)C[C@@H]1O (stereo partly drawn) | 32
CCCCC(C)(C)[C@H](O)/C=C/C1C(=O)C[C@H](O)[C@@H]1C/C=C\CCCC(=O)O (stereo partly drawn) | 32
CCCCC[C@H](O)CCC1C(=O)C[C@H](O)[C@@H]1CCCCCCC(=O)O (stereo partly drawn) | 0.3
CCCCC[C@](C)(O)/C=C/C1C(=O)C[C@H](O)[C@@H]1C/C=C\CCCC(=O)O (stereo partly drawn) | 32
